The results in this text go back to US11839613B2, “Pyrimidine derivatives as PGE2 receptor modulators” (IDORSIA PHARMACEUTICALS LTD, priority 2017, dated 2023).

Assay [1] addresses PTGER2 (EP2) (Homo sapiens (Human), UniProt P43116). As to the kind of experiment: hEP2 b-arrestin assay (PathHunter HEK 293 PTGER2 b-arrestin cells). The assay is classed as cell-based. Conditions: antagonistic activity, beta-arrestin assay; read-out: hEP2 b-arr IC50. As to the method: Plate is pre-incubated 15 minutes at 37° C. Then five microliters of PGE2 (final conc. 5 μM) are transferred into the assay plate. Plate is incubated 120 minutes at 37° C.
(each concentration is measured in duplicate)

Assay [2] addresses EP2 (Homo sapiens (Human), UniProt P43116). As to the kind of experiment: hEP2 cAMP assay (SF295 glioblastoma cells, HTRF cAMP). Conditions: antagonistic activity. The assay is classed as cell-based. In short, it runs like this:
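PGE2-driven cAMP accumulation was measured by HTRF in SF295 cells, which express endogenous EP2 only. Cells in assay buffer with 2 mM IBMX were pre-incubated 45 min at RT, then incubated 30 min at RT. Detection used competition between cellular cAMP and d2-cAMP for a cryptate anti-cAMP antibody.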

For assay [3], the target named is EP4 (Homo sapiens (Human), UniProt P35408). As to the kind of experiment: hEP4 cAMP assay (BT549 breast cancer cells, HTRF cAMP). The assay is classed as cell-based. The note with it: antagonistic activity, PGE2 6 nM. In short, it runs like this: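 BT549 breast cancer cells (endogenous EP4) in HBSS/20 mM HEPES/0.2% BSA/2 mM IBMX preincubated 45 min at RT with compound, then stimulated 30 min at RT with 6 nM PGE2 (final). cAMP read by competitive HTRF immunoassay, signal inversely proportional to cAMP.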

Assay [4] has as its target PTGER4 (EP4) (Homo sapiens (Human), UniProt P35408). As to the kind of experiment: cell-based.

EP2, sequence (P43116 whole entry): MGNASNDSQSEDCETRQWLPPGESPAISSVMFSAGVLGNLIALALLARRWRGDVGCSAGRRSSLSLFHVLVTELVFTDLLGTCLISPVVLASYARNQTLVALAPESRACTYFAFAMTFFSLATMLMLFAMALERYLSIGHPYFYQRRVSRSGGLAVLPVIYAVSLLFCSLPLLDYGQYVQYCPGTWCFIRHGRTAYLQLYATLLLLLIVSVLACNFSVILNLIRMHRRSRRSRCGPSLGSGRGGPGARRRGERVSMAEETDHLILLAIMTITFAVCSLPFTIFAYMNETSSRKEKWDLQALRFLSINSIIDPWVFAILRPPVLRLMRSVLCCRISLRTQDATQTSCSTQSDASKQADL
PTGER2 (EP2), sequence (P43116 whole entry): as above
PTGER4 (EP4), sequence (P35408 whole entry): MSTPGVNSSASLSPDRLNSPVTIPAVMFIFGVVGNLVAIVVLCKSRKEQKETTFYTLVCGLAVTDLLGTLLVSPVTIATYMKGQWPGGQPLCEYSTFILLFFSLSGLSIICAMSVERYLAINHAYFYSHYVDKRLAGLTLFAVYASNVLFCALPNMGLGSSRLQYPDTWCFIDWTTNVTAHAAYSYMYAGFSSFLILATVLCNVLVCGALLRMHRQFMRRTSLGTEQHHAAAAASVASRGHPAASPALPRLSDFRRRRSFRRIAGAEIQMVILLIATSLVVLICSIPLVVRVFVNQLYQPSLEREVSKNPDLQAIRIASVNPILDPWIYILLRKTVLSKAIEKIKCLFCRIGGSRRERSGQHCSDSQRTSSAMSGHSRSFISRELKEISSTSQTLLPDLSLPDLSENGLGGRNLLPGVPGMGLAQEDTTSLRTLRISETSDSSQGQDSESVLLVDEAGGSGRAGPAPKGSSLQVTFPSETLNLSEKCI
EP4, sequence (P35408 whole entry): as above

For orientation: IC50 means the concentration that inhibits the measured activity by half. Consider `CCOc1cc(-c2cc(NCCc3ccc4ccccc4c3C)ncn2)sc1C(=O)NS(C)(=O)=O` [Example 355, N-(3-Ethoxy-5-{6-[2-(1-methyl-naphthalen-2-yl)-ethylamino]-pyrimidin-4-yl}-thiophene-2-carbonyl)-methanesulfonamide], for which the IC50 stood at 55 nM in assay [1], 46 nM in assay [2], 95 nM in assay [3] and 29 nM in assay [4].
With `CCOc1cc(-c2cc(NCCc3c(OC)cc4occc4c3C)ncn2)ccc1OCC(=O)O` [Ex 102, (2-Ethoxy-4-{6-[2-(6-methoxy-4-methyl-benzofuran-5-yl)-ethylamino]-pyrimidin-4-yl}-phenoxy)-acetic acid], the half-maximal inhibitory concentration (IC50) in assay [1] amounted to 9 nM; in assay [2] it was 6 nM; in assay [3], 70 nM; in assay [4] it was 141 nM.
Regarding `CCOc1cc(-c2cc(NCCc3c(OC)cc4occc4c3C)ncn2)ccc1CC(=O)O` [Ex 157, (2-Ethoxy-4-{6-[2-(6-methoxy-4-methyl-benzofuran-5-yl)-ethylamino]-pyrimidin-4-yl}-phenyl)-acetic acid], the IC50 is 7 nM in assay [1], 22 nM in assay [2], 156 nM in assay [3] and 89 nM in assay [4].
Take `CCc1nc(-c2cc(NCCc3ccc4ccccc4c3C)ncn2)sc1C(=O)O` [Example 351, 4-Ethyl-2-{6-[2-(1-methyl-naphthalen-2-yl)-ethylamino]-pyrimidin-4-yl}-thiazole-5-carboxylic acid]: the half-inhibitory concentration (IC50) in assay [1] is 475 nM; in assay [2] it was 236 nM; in assay [3] it was 167 nM; in assay [4], 79 nM.
With `CCOc1cc(-c2cc(NCCc3ccc4c(c3)OCO4)ncn2)sc1-c1noc(=O)[nH]1` [Example 344, 3-{5-[6-(2-Benzo[1,3]dioxol-5-yl-ethylamino)-pyrimidin-4-yl]-3-ethoxy-thiophen-2-yl}-[1,2,4]oxadiazol-5(4H)-one], the IC50 in assay [1] is 33 nM; in assay [2] it was 33 nM; in assay [3] it was 14 nM; in assay [4], 39 nM.
With `CCOc1cc(-c2cc(NCCc3ccc4c(c3)CCCO4)ncn2)sc1C(=O)O` [Ex 56, 5-[6-(2-Chroman-6-yl-ethylamino)-pyrimidin-4-yl]-3-ethoxy-thiophene-2-carboxylic acid], the half-inhibitory concentration (IC50) worked out at 538 nM in assay [1], 190 nM in assay [2], 28 nM in assay [3] and 27 nM in assay [4].
The corresponding values for `CSc1cc(-c2cc(NCCc3ccc4ccoc4c3)ncn2)ccc1C(=O)O` [Ex 250, 4-[6-(2-Benzofuran-6-yl-ethylamino)-pyrimidin-4-yl]-2-methylsulfanyl-benzoic acid] are 112 nM, 77 nM, 287 nM and 609 nM.
Regarding `CCOc1cc(-c2cc(NCCc3ccc4sccc4c3)ncn2)ccc1CC(=O)O` [Ex 189], the IC50 in assay [1] worked out at 158 nM; in assay [2], 530 nM; in assay [3] it was 208 nM; in assay [4], 108 nM.
For `O=C(O)c1ccc(-c2cc(NCCc3ccc4sccc4c3)ncn2)cc1OC1CCC1` [Ex 125, 4-[6-(2-Benzo[b]thiophen-5-yl-ethylamino)-pyrimidin-4-yl]-2-cyclobutoxy-benzoic acid], the concentration for half-maximal inhibition (IC50) in assay [1] came to 116 nM; in assay [2] it was 129 nM; in assay [3], 99 nM; in assay [4], 226 nM.
For the compound `CCOc1cc(-c2cc(NCCc3c(OC)cc4c(c3C)OCCO4)ncn2)ccc1C(=O)O` [Example 395, 2-Ethoxy-4-{6-[2-(7-methoxy-5-methyl-2,3-dihydro-benzo[1,4]dioxin-6-yl)-ethylamino]-pyrimidin-4-yl}-benzoic acid], the half-inhibitory concentration (IC50) in assay [1] was determined as 4 nM; in assay [2] it was 5 nM; in assay [3] (BT549 cells) it was 128 nM; in assay [4] it was 98 nM.
With `CCOc1cc(-c2cc(NCCc3ccc4ccccc4c3C)ncn2)sc1CCC(=O)O` [Ex 57, 3-(3-Ethoxy-5-{6-[2-(1-methyl-naphthalen-2-yl)-ethylamino]-pyrimidin-4-yl}-thiophen-2-yl)-propionic acid], the half-maximal inhibitory concentration (IC50) in assay [1] is 195 nM; in assay [2], 191 nM; in assay [3], 28 nM; in assay [4], 34 nM.
As for `CCOc1cc(-c2cc(NCCc3ccc4sccc4c3)ncn2)sc1-c1noc(=O)[nH]1` [Example 340, 3-{5-[6-(2-Benzo[b]thiophen-5-yl-ethylamino)-pyrimidin-4-yl]-3-ethoxy-thiophen-2-yl}-[1,2,4]oxadiazol-5(4H)-one], the IC50 came to 12 nM in assay [1], 104 nM in assay [2], 11 nM in assay [3] and 3 nM in assay [4].
In the same order, the values of `CCOc1cc(-c2cc(NCCc3c(OC)cc4occc4c3C)ncn2)sc1C(=O)O` [Ex 8, 3-Ethoxy-5-{6-[2-(6-methoxy-4-methyl-benzofuran-5-yl)-ethylamino]-pyrimidin-4-yl}-thiophene-2-carboxylic acid] are 5 nM, 1 nM, 6 nM and 22 nM.
`CCOc1cc2c(cc1CCNc1cc(-c3ccc(C(=O)O)c(SC)c3)ncn1)OCCO2` [Ex 137, 4-{6-[2-(7-Ethoxy-2,3-dihydro-benzo[1,4]dioxin-6-yl)-ethylamino]-pyrimidin-4-yl}-2-methylsulfanyl-benzoic acid]: the IC50 in assay [1] worked out at 14 nM; in assay [2], 4 nM; in assay [3] it was 120 nM; in assay [4] it was 124 nM.
Turning to `CCOc1cc2c(cc1CCNc1cc(-c3ccc(C(=O)O)c(OC4CCC4)c3)ncn1)OCCO2` [Ex 196, 2-Cyclobutoxy-4-{6-[2-(7-ethoxy-2,3-dihydro-benzo[1,4]dioxin-6-yl)-ethylamino]-pyrimidin-4-yl}-benzoic acid], the IC50 in assay [1] was 21 nM; in assay [2] it was 37 nM; in assay [3], 217 nM; in assay [4], 199 nM.
As for `COc1cc2sccc2cc1CCNc1cc(-c2ccc(C(=O)O)c(SC)c2)ncn1` [Ex 18, 4-{6-[2-(6-Methoxy-benzo[b]thiophen-5-yl)-ethylamino]-pyrimidin-4-yl}-2-methylsulfanyl-benzoic acid], the IC50 in assay [1] stood at 6 nM; in assay [2], 4 nM; in assay [3] it was 10 nM; in assay [4], 70 nM.
Take `CSc1cc(-c2cc(NCCc3ccc4[nH]ccc4c3)ncn2)ccc1C(=O)O` [Ex 319]: the results for the IC50 in assay [2], in assay [3] and in assay [4] were 354 nM, 559 nM and 1180 nM, respectively.
On to `CCOc1cc(-c2cc(NCCc3cc4c(cc3OC)CCCC4)ncn2)sc1C(=O)O` [Ex 60, 3-Ethoxy-5-{6-[2-(3-methoxy-5,6,7,8-tetrahydro-naphthalen-2-yl)-ethylamino]-pyrimidin-4-yl}-thiophene-2-carboxylic acid], for which the half-inhibitory concentration (IC50) in assay [2] is 320 nM; in assay [3], 31 nM; in assay [4], 3 nM.
In the same order, the values of `CCOc1cc(-c2cc(NCCc3ccc4c(c3)CCC4)ncn2)sc1C(=O)O` [Ex 44, 3-Ethoxy-5-[6-(2-indan-5-yl-ethylamino)-pyrimidin-4-yl]-thiophene-2-carboxylic acid] are 283 nM, 21 nM and 24 nM.
The corresponding values for `CCOc1cc(-c2cc(NCCc3ccc4ccccc4c3)ncn2)sc1-c1noc(=O)[nH]1` [Example 345, 3-{3-Ethoxy-5-[6-(2-naphthalen-2-yl-ethylamino)-pyrimidin-4-yl]-thiophen-2-yl}-[1,2,4]oxadiazol-5(4H)-one] are 683 nM, 30 nM and 6 nM.
As to `CN1CCCc2cc(CCNc3cc(-c4cc(C(F)(F)F)c(C(=O)O)s4)ncn3)c(F)cc21` [Ex 72, 5-{6-[2-(7-Fluoro-1-methyl-1,2,3,4-tetrahydro-quinolin-6-yl)-ethylamino]-pyrimidin-4-yl}-3-trifluoromethyl-thiophene-2-carboxylic acid], the values for the concentration for half-maximal inhibition (IC50) in assay [2], in assay [3] and in assay [4] were 892 nM, 39 nM and 37 nM, respectively.
Regarding `CCOc1cc(-c2cc(NCCc3cc4ccccc4cc3OC)ncn2)ccc1C(=O)O` [Ex 162], the results for the half-inhibitory concentration (IC50) in assay [2], in assay [3] and in assay [4] were 371 nM, 158 nM and 134 nM, respectively.
As to `CCOc1cc(-c2cc(NCCc3cc4ccoc4cc3F)ncn2)ccc1CC(=O)O` [Ex 195], the IC50 in assay [2] worked out at 373 nM; in assay [3], 217 nM; in assay [4], 245 nM.
Consider `CCOc1cc(-c2cc(NCCc3ccc4sccc4c3)ncn2)ccc1C(C)C(=O)O` (stereo not shown) [Ex 161], for which the half-maximal inhibitory concentration (IC50) worked out at 524 nM in assay [2], 130 nM in assay [3] and 199 nM in assay [4].
Turning to `CCOc1cc(-c2cc(NCCc3ccc4occc4c3)ncn2)ccc1CC(=O)O` [Ex 311, {4-[6-(2-Benzofuran-5-yl-ethylamino)-pyrimidin-4-yl]-2-ethoxy-phenyl}-acetic acid], the IC50 turned out to be 538 nM in assay [2], 685 nM in assay [3] and 310 nM in assay [4].
Take `CCOc1cc(-c2cc(NCCc3ccc4ccccc4c3)ncn2)sc1C(=O)O` [Ex 36, 3-Ethoxy-5-[6-(2-naphthalen-2-yl-ethylamino)-pyrimidin-4-yl]-thiophene-2-carboxylic acid]: the IC50 in assay [2] turned out to be 557 nM; in assay [3], 18 nM; in assay [4], 20 nM.
